Results reported in patent publication US6630481B2, “Viologen linked acridine based molecule and process for the preparation thereof” (Council of Scientific and Industrial Research of India, priority 2001, dated 2003).

Assays:
[1] = system: calf thymus DNA; assay: DNA binding affinity (association constants) by absorption and fluorescence; conditions: buffer containing 1 mM EDTA
Procedure: DNA binding efficiency. DNA binding affinities of acridine-viologen bifunctional molecules represented by compound of formula 1a and 1d were analyzed using calf thymus DNA, in NaCl buffer at different salt concentrations (2 mM and 100 mM). Test solutions containing different concentrations of calf thymus DNA in NaCl buffer were incubated at room temperature for one hour to complete the complexation and were analyzed using absorption and fluorescence techniques. […] The binding constants of viologen linked acridines with DNA were determined according to the reported procedures. References may be made to Peacocke, A. R.; Skerrett, J. N. H. Trans. Faraday Soc. 1956, 52, 261; McGhee, J. D.; von Hippel, P. H. J. Mol. Biol. 1974, 86, 469; Scatchard, G. Ann. N.Y. Acad. Sci 1949, 51, 660; Adam, W.; Cadet, J.; Dall'Acqua, F.; Epe, B.; Ramaiah, D.; Saha-Moller, C. R. Angew. Chem. Int. Ed. Engl. 1995, 34, 107). […] Further fluorescence lifetimes of these compounds were also examined in presence and absence of DNA.

[2] = system: PM2 DNA; assay: DNA relaxation assay: photoactivated cleavage of plasmid DNA with repair endonucleases; format: biochemical; conditions: 360 nm light; for damage sensitive to FPG protein with increase in the time of irradiation: 0° C., FIG. 5 and FIG. 6; for generation of single strand breaks (SSB) with irradiation time: irradiation for 30 min
Text: Cleavage of plasmid DNA was followed by monitoring the conversion of supercoiled (Form I) to open circular relaxed (Form II) and linear (Form III). Plasmid DNA cleavage is a very sensitive technique and when combined with several repair endonucleases, it can serve as a kind of fingerprint of the species directly responsible for the damage. Induction of one single strand break (SSB) by a compound converts Form I to Form II and the quantification of which indicates its efficiency of DNA cleavage. A DNA relaxation assay was used to quantify SSB and endonuclease-sensitive modifications (Epe, B.; Helger, J.; Wild, D. Carcinogenesis 1989, 10, 2019 and Epe, B.; Mftzel, P.; Adam, W. Chem. Biol. Interactions 1988, 67, 149). This assay makes use of the fact that Form I when converted by either a single strand break (SSB) or the incision by a repair endonuclease leads to Form II, which migrates separately in agarose gel electrophoresis.
Phosphate-buffered (pH 7.0), air-saturated solutions of PM2 DNA (10 μg/mL) at 0° C. were irradiated with 360 nm near-UV irradiation in the presence of various concentrations of acridine-viologen bifunctional molecules represented by compound of formula 1a and 1b (wherein Y=—(CH2)n, wherein n=1-11; R=—MV^2+—(CH2)m—CH32X^⊖ or —Pyr^2+—(CH2)m—CH32X^⊖ and wherein Y=—(CH2)n, wherein n=1-11; R=—MV^2+—(CH2)m—Acr2X^⊖ or —Pyr^2+—(CH2)m—Acr2X^⊖ respectively). Subsequently, the DNA was analyzed for the following types of modifications: (i) DNA single and double strand breaks; (ii) sites of base loss (AP sites) recognized by exonuclease III; (iii) base modifications plus AP sites sensitive to the T4 endonuclease V; (iv) base modifications plus AP sites sensitive to the endonuclease III and (v) base modifications plus AP sites sensitive to formamidopyrimidine-DNA glycosylase (FPG protein).

Compound | K (DNA association constant) ([1]; 2 mM NaCl) [M⁻¹] | K (DNA association constant) ([1]; 100 mM NaCl) [M⁻¹] | damage sensitive to FPG protein with increase in the time of irradiation [2] | generation of single strand breaks (SSB) with irradiation time [2]
CCCC[n+]1ccc(-c2cc[n+](CCCCCCCCCCCc3c4ccccc4nc4ccccc34)cc2)cc1.[Br-].[Br-] [1-[11-(acridin-9-yl)undecyl]-1′-butyl-4,4′-bipyridinium dibromide] | 5.24e+06 | 164000 | increases | No significant increase
bis-1,1′-[(acridin-9-yl)methyl]-4,4′-bipyridinium dibromide | 1.3e+06 | 390000 | – | –
CCCC[n+]1ccc(-c2cc[n+](Cc3c4ccccc4nc4ccccc34)cc2)cc1.[Br-].[Br-] [1-[(acridin-9-yl)methyl]-1′-butyl-4,4′-bipyridinium dibromide] | 924000 | 101000 | increases | No significant increase
